Laboratory results taken from PMC10388305, “Synthesis and Evaluation of a Monomethyl Auristatin E—Integrin αvβ6 Binding Peptide–Drug Conjugate for Tumor Targeted Drug Delivery” (Journal of Medicinal Chemistry, 2023).
Square brackets hold non-standard residues; d marks the D form. Peptide text beside a SMILES is read from it. * marks the point of attachment. Dolaproine = CO[C@@H]([C@@H]1CCCN1)[C@@H](C)C(=O)O; Dil = CC[C@H](C)[C@H](NC)[C@@H](CC(=O)O)OC; X1 = C[C@@H](N*)[C@@H](O)c1ccccc1; NMeV = CN[C@H](C(=O)O)C(C)C

Key:
[1] = test system: DX3puro (−) cells; assay: Caspase-3/7 activity assay (ApoTox-Glo), DX3puro; assay type: cell-based; details: 0.625 nM (MMAE 1 nM, staurosporine 100 nM), 24, 48, 72 h
Procedure: (§1) Caspase-3/7 activity was analyzed using an ApoTox-Glo Triplex Assay kit. Cells were seeded in a 96 well plate at the same density and using the same respective media as described for the WST-1 assay and incubated overnight (37 °C, 5% CO2). DX3puroβ6 and DX3puro cells were treated with 1 nM of MMAE (free, non-targeted drug) or 0.625 nM of the other compounds: NH2-2, [^natCu]2, NH2-PDC-1, or [^natCu]PDC-1. BxPC-3 and MIA PaCa-2 cells were treated with 10 nM of MMAE or 250 nM of the other compounds: NH2-2, [^natCu]2, NH2-PDC-1, or [^natCu]PDC-1. All cells were treated with 100 nM of staurosporine as a positive control.[24] Untreated cells (media) were used as a measure of endogenous caspase-3/7 activity (normalized to 1). Cells were treated (n = 4/cell line/compound/time) for 24, 48, or 72 h (37 °C, 5% CO2) prior to washing. After treatment, the media was removed, cells were washed, and Caspase-Glo 3/7 reagent was added, and incubated for 1 h at room temperature. Caspase-3/7 activity was analyzed by measuring luminescence with a Fluoroskan FL microplate reader according to the manufacturer’s protocol.

[2] = test system: DX3puroβ6 (+) and DX3puro (−) tumors; assay: Therapy study, control groups (half DX3puroβ6 (+), half DX3puro (−) tumors); assay type: in vivo, mice
Source text: Mice treated with [^natCu]PDC-1 had slower tumor growth compared to the groups receiving saline, non-drug bearing peptide [^natCu]2, or free, non-targeted MMAE (Figure 7). […] All mice in the groups treated with saline, non-drug bearing peptide [^natCu]2, or free, non-targeted MMAE had met an end point criterion (≥2 cm in any direction and/or tumor ulceration) by 56 days, 70 days, and 64 days from start of treatment, respectively, with all these groups having the same median survival of 37 days (Figure 7B).
Figure 7 (A) Average tumor volume over time. (B) Kaplan–Meier survival plot.
Tumor xenografts were established by subcutaneous injection of either DX3puroβ6 or DX3puro cells (3 × 10^6 cells in 100 μL serum-free DMEM/animal) into the flank. The tumors were allowed to grow for 19 days before the start of treatment (day 0). […] Tumor volumes and body weights (to assess possible systemic toxicity) were measured starting on day 0, and once a week thereafter until the end of the study. Tumor volume (V) was determined according to the equation V = (π/6) × L × W × H, where L is the longest axis, W is the axis perpendicular to L, and H is perpendicular to the plane of L and W. End point determination criteria were: any axis >2 cm, active ulceration, or compromised health of the mouse (>20% loss of body weight from the start of the study). […] Survival curves were determined by Kaplan–Meier method.

[3] = test system: DX3puroβ6 (+) cells; assay: Caspase-3/7 activity assay (ApoTox-Glo), DX3puroβ6; assay type: cell-based; details: DX3puroβ6 (+); 0.625 nM (MMAE 1 nM, staurosporine 100 nM); 24, 48, 72 h
Procedure: as §1

[4] = test system: DX3puroβ6 (+) cells; assay: WST-1 cell viability assay, DX3puroβ6; assay type: cell-based; details: DX3puroβ6 (+); 48 h treatment + 24 h media; mean ± SD
Procedure: (§2) Peptides NH2-2 and [^natCu]2 were not toxic to any cells (Figure 3, gray and black, respectively).
(§3) Cell viability was measured after treatment with either NH2-2, [^natCu]2, MMAE (free, non-targeted drug), NH2-PDC-1, or [^natCu]PDC-1 in DX3puroβ6 (+) and DX3puro (−) cells at variable concentrations up to 5 nM, and in BxPC-3 (+) and MIA PaCa-2 (−) cells at variable concentrations up to 250 nM, or with MMAE at concentrations up to 10 nM. Cells were seeded in a 96 well plate at a density of 6000 cells/well for DX3puroβ6 and DX3puro, and at a density of 10,000 cells/well for BxPC-3 and MIA PaCa-2. DMEM media was used for all cells except for BxPC-3 (RPMI 1640 media). Cells (n = 6–8 wells/cell type/compound) were treated with different concentrations of NH2-2, [^natCu]2, MMAE, NH2-PDC-1, or [^natCu]PDC-1 dissolved in the respective media, as well as their respective media (no treatment) for 48 h (37 °C, 5% CO2), after which the media was removed; cells were washed twice with media (200 μL) and re-incubated in media (37 °C, 5% CO2) for 24 h. The media was then removed and the WST-1 reagent was added to each well, and the cells were incubated for 2 h at 37 °C. The 96 well plates were read at 450 nm by a Multiscan Ascent microplate reader. The percent cell viability was normalized to untreated cells (set as 100% viability) for each cell line.

[5] = cited from earlier work
Procedure: Tumor xenografts were established by subcutaneous injection of either DX3puroβ6 or DX3puro cells (3 × 10^6 cells in 100 μL serum-free DMEM/animal) into the flank. The tumors were allowed to grow for 19 days before the start of treatment (day 0). Mice were treated with either (1) saline, (2) peptide ([^natCu]2), 6 mg/kg, 1.12 μmol/kg), (3) non-targeted drug (MMAE, 0.3 mg/kg, 0.42 μmol/kg), or (4) PDC ([^natCu]PDC-1, 6 mg/kg, 0.88 μmol/kg). Dosing of MMAE was 0.3 mg/kg as per maximum dose with no physiological response.[25] The [^natCu]PDC-1 treatment groups consisted of n = 10/tumor model, whil ...

[6] = test system: MIA PaCa-2 (−) cells; assay: WST-1 cell viability assay, MIA PaCa-2; assay type: cell-based; details: MIA PaCa-2 (−); 48 h treatment + 24 h media; up to 250 nM (MMAE up to 10 nM); mean ± SD
Procedure: as §2, §3

[7] = test system: MIA PaCa-2 (−) cells; assay: Caspase-3/7 activity assay (ApoTox-Glo), MIA PaCa-2; assay type: cell-based; details: 250 nM (MMAE 10 nM, staurosporine 100 nM), 24, 48, 72 h
Procedure: as §1

[8] = test system: DX3puro (−) cells; assay: WST-1 cell viability assay, DX3puro; assay type: cell-based; details: 48 h treatment + 24 h media, up to 5 nM, mean ± SD
Procedure: as §2, §3

[9] = test system: BxPC-3 (+) cells; assay: WST-1 cell viability assay, BxPC-3; assay type: cell-based; details: 48 h treatment + 24 h media, mean ± SD
Procedure: as §2, §3

[10] = test system: BxPC-3 (+) cells; assay: Caspase-3/7 activity assay (ApoTox-Glo), BxPC-3; assay type: cell-based; details: 250 nM (MMAE 10 nM, staurosporine 100 nM), 24, 48, 72 h
Procedure: as §1

CC[C@H](C)[C@@H]([C@@H](CC(=O)N1CCC[C@H]1[C@H](OC)[C@@H](C)C(=O)N[C@H](C)[C@@H](O)c1ccccc1)OC)N(C)C(=O)[C@@H](NC(=O)[C@@H](NC)C(C)C)C(C)C [MMAE, monomethyl auristatin E] (H-[NMeV]V[Dil][Dolaproine]-X1)
Caspase-3/7 activity (in words) [1]: increased caspase-3/7 activity
Median survival ([2]; [natCu]2 6 mg/kg, MMAE 0.3 mg/kg i.v. on days 0, 3, 6, 9, n = 8/group): 37 days
Time by which all mice had met an end point criterion ([2]; from start of treatment): ≤ 64 days
Caspase-3/7 activity (in words) [3]: increased caspase-3/7 activity
EC50 [4]: 0.15 ± 0.02 nM
Maximum dose with no physiological response [5]: 0.3 mg/kg
EC50 [6]: 0.16 ± 0.01 nM
Caspase-3/7 activity (in words) [7]: increased caspase-3/7 activity
EC50 [8]: 0.14 ± 0.03 nM
EC50 [9]: 0.5 ± 0.03 nM
Caspase-3/7 activity (in words) [10]: increased caspase-3/7 activity
